PubChem BioAssay AID328 (DTP/NCI, 2004)
Values joined by “and” are separate entries in the source; they are usually repeats but may differ in a detail not shown here. Equal entries are not always repeated. Toxic doses and inconclusive results are not listed. The calls were made as follows: active = survival T/C of 150% or more; inactive = T/C below 125% in these data.

Test system: BDF1 mice, P388 leukemia ip, median survival T/C
Assay: NCI In Vivo Anticancer Drug Screen. Data for tumor model P388 Leukemia (intraperitoneal) in B6D2F1 (BDF1) mice
Details: endpoint: median survival time, higher = longer survival
Procedure, shortened: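 Steps: implant the tumour, treat one group with compound and another with vehicle, record survival, then divide treated by control.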

[1] = dose: 100.0 mg/kg/injection, schedule: Q04DX003 (ip), vehicle: saline with Tween-80
[2] = dose: 200.0 mg/kg/injection, schedule: Q04DX003 (ip), vehicle: saline with Tween-80
[3] = dose: 400.0 mg/kg/injection, schedule: Q04DX003 (ip), vehicle: saline with Tween-80
[4] = dose: 50.0 mg/kg/injection, schedule: Q01DX009 (ip), vehicle: saline
[5] = dose: 50.0 mg/kg/injection, schedule: Q01DX009 (ip), vehicle: saline with Tween-80
[6] = dose: 100.0 mg/kg/injection, schedule: Q01DX009 (ip), vehicle: saline with Tween-80
[7] = dose: 200.0 mg/kg/injection, schedule: Q01DX009 (ip), vehicle: saline with Tween-80
[8] = dose: 100.0 mg/kg/injection, schedule: Q01DX009 (ip), vehicle: Klucel (hydroxypropylcellulose) (HPC)
[9] = dose: 200.0 mg/kg/injection, schedule: Q04DX003 (ip), vehicle: Klucel (hydroxypropylcellulose) (HPC)
[10] = dose: 400.0 mg/kg/injection, schedule: Q04DX003 (ip), vehicle: Klucel (hydroxypropylcellulose) (HPC)
[11] = dose: 50.0 mg/kg/injection, schedule: Q04DX003 (ip), vehicle: Klucel (hydroxypropylcellulose) (HPC)
[12] = dose: 100.0 mg/kg/injection, schedule: Q04DX003 (ip), vehicle: Klucel (hydroxypropylcellulose) (HPC)
[13] = dose: 50.0 mg/kg/injection, schedule: Q01DX005 (ip), vehicle: saline with Tween-80
[14] = dose: 100.0 mg/kg/injection, schedule: Q01DX005 (ip), vehicle: saline with Tween-80
[15] = dose: 200.0 mg/kg/injection, schedule: Q01DX005 (ip), vehicle: saline with Tween-80

Measured: T/C

c1ccc2c(c1)Cn1c-2nc2ccccc21
inactive: dose: 100.0 mg/kg/injection, schedule: Q04DX003 (ip), vehicle: other 118 % of control | dose: 200.0 mg/kg/injection, schedule: Q04DX003 (ip), vehicle: other 109 % of control | dose: 400.0 mg/kg/injection, schedule: Q04DX003 (ip), vehicle: other 113 % of control

O=C(C1=Cc2ccccc2OC1)N1CCN(C(=O)C2=Cc3ccccc3OC2)CC1
inactive: [1] 91 % of control | [2] 91 % of control | [3] 86 % of control

CCN(CC)CCCCCNc1cc(Cl)c(Cl)cc1[N+](=O)[O-]
inactive: [4] 111 % of control | dose: 100.0 mg/kg/injection, schedule: Q01DX009 (ip), vehicle: saline 100 % of control

Cc1nc2ccccc2nc1CC(O)(c1ccccc1)c1cccc2ccccc12 (stereo unspecified)
inactive: [5] 94 % of control | [6] 95 % of control | [7] 97 % of control

COc1ccc(/C=C(C(=O)O)/C(=C/c2ccc(OC)c(OC)c2)C(=O)O)cc1OC
inactive: [8] 100 % of control | dose: 200.0 mg/kg/injection, schedule: Q01DX009 (ip), vehicle: Klucel (hydroxypropylcellulose) (HPC) 109 % of control | [9] 95 % of control | dose: 400.0 mg/kg/injection, schedule: Q01DX009 (ip), vehicle: Klucel (hydroxypropylcellulose) (HPC) 95 % of control | [10] 112 % of control

[Cl][Eu]([Cl])[Cl]
inactive: dose: 6.25 mg/kg/injection, schedule: Q01DX009 (ip), vehicle: saline 98 % of control | dose: 12.5 mg/kg/injection, schedule: Q01DX009 (ip), vehicle: saline 100 % of control | dose: 25.0 mg/kg/injection, schedule: Q01DX009 (ip), vehicle: saline 92 % of control | [4] 96 % of control

CCOC(=O)Cn1nc(-c2ccc([N+](=O)[O-])o2)sc1=O
inactive: [5] 110 % of control | [6] 94 % of control | [7] 117 % of control

COc1ccc(CC2C(=O)NC(C)C(=O)N(C)C3C(=O)N(C)C(Cc4ccc(O)c(c4)Oc4ccc(cc4)C3O)C(=O)NC(C)C(=O)NC(C)C(=O)N2C)cc1 (stereo unspecified)
active: dose: 0.11 mg/kg/injection, schedule: Q01DX009 (ip), vehicle: alcohol 150 % of control | dose: 0.11 mg/kg/injection, schedule: Q01DX009 (ip), vehicle: saline 164 % of control | dose: 0.16 mg/kg/injection, schedule: Q01DX009 (ip), vehicle: alcohol 158 % of control | dose: 0.25 mg/kg/injection, schedule: Q01DX009 (ip), vehicle: alcohol 188 % of control | dose: 1.0 mg/kg/injection, schedule: Q01DX009 (ip), vehicle: distilled water + Tween-80 173 % of control | dose: 518.0 micrograms/kg/injection, schedule: Q04DX003 (ip), vehicle: other 163 % of control | dose: 864.0 micrograms/kg/injection, schedule: Q04DX003 (ip), vehicle: other 184 % of control | dose: 1440.0 micrograms/kg/injection, schedule: Q04DX003 (ip), vehicle: other 175 % of control | dose: 2400.0 micrograms/kg/injection, schedule: Q04DX003 (ip), vehicle: other 181 % of control
inactive: dose: 10.0 micrograms/kg/injection, schedule: Q01DX009 (ip), vehicle: alcohol 110 % of control

CCNC(=S)N/N=C/c1ccc[nH]1
inactive: dose: 15.0 mg/kg/injection, schedule: Q01DX009 (ip), vehicle: saline with Tween-80 104 % of control | dose: 30.0 mg/kg/injection, schedule: Q01DX009 (ip), vehicle: saline with Tween-80 88 % of control | dose: 60.0 mg/kg/injection, schedule: Q01DX009 (ip), vehicle: saline with Tween-80 101 % of control

O=C1C=CC(=O)N1CCc1ccccc1
inactive: dose: 5.0 mg/kg/injection, schedule: Q01DX009 (ip), vehicle: saline with Tween-80 100 % of control | dose: 10.0 mg/kg/injection, schedule: Q01DX009 (ip), vehicle: saline with Tween-80 92 % of control | dose: 10.0 mg/kg/injection, schedule: Q04DX003 (ip), vehicle: saline with Tween-80 108 % of control | dose: 20.0 mg/kg/injection, schedule: Q01DX009 (ip), vehicle: saline with Tween-80 92 % of control | dose: 20.0 mg/kg/injection, schedule: Q04DX003 (ip), vehicle: saline with Tween-80 108 % of control

Cc1cc2nc(Oc3ccccc3)nc(=O)n2o1
inactive: [5] 100 % of control and 117 % of control | [6] 106 % of control and 123 % of control | [7] 112 % of control and 121 % of control

Cn1c(CS)nc2ccccc21
inactive: dose: 12.5 mg/kg/injection, schedule: Q04DX003 (ip), vehicle: Klucel (hydroxypropylcellulose) (HPC) 104 % of control | dose: 25.0 mg/kg/injection, schedule: Q04DX003 (ip), vehicle: Klucel (hydroxypropylcellulose) (HPC) 102 % of control | [11] 105 % of control | [12] 96 % of control

CCCCCCCCCCCCCCCCCC(N)=O
inactive: [12] 90 % of control | [9] 95 % of control | [10] 100 % of control

Cc1cc2c(c3ncccc13)OCN(Cc1ccc(Cl)cc1)C2
inactive: dose: 12.5 mg/kg/injection, schedule: Q01DX009 (ip), vehicle: saline with Tween-80 104 % of control | dose: 25.0 mg/kg/injection, schedule: Q01DX009 (ip), vehicle: saline with Tween-80 100 % of control | [5] 91 % of control

CC[CH2][Sn]([Cl])([Cl])[CH2]CC
inactive: dose: 0.1 mg/kg/injection, schedule: Q01DX009 (ip), vehicle: Klucel (hydroxypropylcellulose) (HPC) 100 % of control | dose: 0.2 mg/kg/injection, schedule: Q01DX009 (ip), vehicle: Klucel (hydroxypropylcellulose) (HPC) 113 % of control | dose: 0.25 mg/kg/injection, schedule: Q01DX009 (ip), vehicle: Klucel (hydroxypropylcellulose) (HPC) 90 % of control | dose: 0.4 mg/kg/injection, schedule: Q01DX009 (ip), vehicle: Klucel (hydroxypropylcellulose) (HPC) 113 % of control | dose: 0.5 mg/kg/injection, schedule: Q01DX009 (ip), vehicle: Klucel (hydroxypropylcellulose) (HPC) 100 % of control | dose: 1.0 mg/kg/injection, schedule: Q01DX009 (ip), vehicle: Klucel (hydroxypropylcellulose) (HPC) 113 % of control | dose: 2.0 mg/kg/injection, schedule: Q01DX009 (ip), vehicle: Klucel (hydroxypropylcellulose) (HPC) 122 % of control

CN(C)CC(=O)Nc1nc(-c2ccc(Cl)cc2)cs1
inactive: [13] 101 % of control | [14] 92 % of control | [15] 99 % of control

CC1(C)OC(C)(C)c2c1nnc(-c1cccc([N+](=O)[O-])c1)[n+]2[O-]
inactive: [13] 88 % of control | [14] 93 % of control | [15] 104 % of control

CC1=C/C(O)CC(=O)Cc2nc(co2)C(=O)N2CCC=C2C(=O)OC(C(C)C)C(C)/C=C\C(=O)NC/C=C\1 (stereo unspecified)
inactive: [8] 118 % of control | dose: 0.5 micrograms/kg/injection, schedule: Q01DX009 (ip), vehicle: saline 105 % of control | dose: 1.0 micrograms/kg/injection, schedule: Q01DX009 (ip), vehicle: saline 101 % of control | dose: 2.0 micrograms/kg/injection, schedule: Q01DX009 (ip), vehicle: saline 108 % of control | dose: 4.0 micrograms/kg/injection, schedule: Q01DX009 (ip), vehicle: saline 101 % of control

COC(=O)c1oc(C(=O)OC)c(OCc2ccccc2)c1OCc1ccccc1
inactive: dose: 50.0 mg/kg/injection, schedule: Q01DX001 (ip), vehicle: saline sonified 100 % of control | dose: 100.0 mg/kg/injection, schedule: Q01DX001 (ip), vehicle: saline sonified 109 % of control | dose: 200.0 mg/kg/injection, schedule: Q01DX001 (ip), vehicle: saline sonified 90 % of control

CCCCNCCC(SS)c1ccc(Cl)cc1 (stereo unspecified)
inactive: dose: 50.0 mg/kg/injection, schedule: Q04DX003 (ip), vehicle: saline with Tween-80 104 % of control | [1] 100 % of control

O=C(O)CCSc1nc2ccccc2s1
inactive: [11] 100 % of control | [12] 100 % of control | [9] 113 % of control

O=C1C(Cl)=C(N2CCOCC2)C(=O)c2ccccc21
inactive: dose: 6.25 mg/kg/injection, schedule: Q01DX009 (ip), vehicle: Klucel (hydroxypropylcellulose) (HPC) 118 % of control | dose: 12.5 mg/kg/injection, schedule: Q01DX009 (ip), vehicle: Klucel (hydroxypropylcellulose) (HPC) 108 % of control | dose: 25.0 mg/kg/injection, schedule: Q01DX009 (ip), vehicle: Klucel (hydroxypropylcellulose) (HPC) 114 % of control

O=S(=O)(Nc1ccccc1)c1ccc(C2CC3(Cl)C(Cl)=C(Cl)C2(Cl)C3(Cl)Cl)cc1 (stereo unspecified)
inactive: [1] 91 % of control | [2] 91 % of control | [3] 91 % of control
